This test deals with sigma receptors. In words: Inhibition of 3H-DTG binding to sigma receptors in rat brain in vitro. The note with it: 2 nM 3H-DTG, rat brain without cerebellum, 25° C., 20 min. How it is done:
INHIBITION OF 3H-DTG BINDING TO SIGMA RECEPTORS IN RAT BRAIN IN VITRO
By this method the inhibition by drugs of the binding of 2 nM ^3 H-DTG (1,3,di-o-tolyl guanidine) to sigma receptors in homogenates or membranes from rat brain without cerebellum is determined in vitro as modified from Weber et al. Proc. Natl. Acad. Sci. 1986, 83,8784.
Homogenate: Rats (150-250 g) are decapitated and the brains (without cerebellum) quickly removed and placed on ice, weighed and homogenized in 100 vol ice-cold (0° C.) 50 mM Tris-buffer (pH 7.7) in an ethanol rinsed glass/teflon homogenizer at 0° C. and kept on ice until use.
P2-membranes: Brains are homogenized in 10 vol 0.32 M sucrose in an ethanol rinsed glass/teflon homogenizer with 10 strokes up and down. The homogenate is centrifuged for 10 min at 900×gm at 4° C. The supernatant is decanted and centrifuged for 20 min at 50,000 gm at 4° C. The resulting pellet is resuspended in 10 vol ice-cold […] Tris-buffer (pH 7.7) and incubated for 30 min. at 37° C. The membrane suspension is then centrifuged for further 20 min. at 50,000 gm at 4° C. The pellet is resuspended in 50 vol. of ice-cold Tris-buffer and used immediately.
0.5 ml 50 mM Tris-buffer (pH 7.7), 0.25 ml displacer (6×100 μM DTG, 6× [test compound], or Tris-buffer), and 0.25 ml 6×2 nM. ^3 H-DTG are mixed into 5 ml s plastic test tubes and kept at 4° C. until use. The binding reaction is initiated by mixing 0.5 ml tissue suspension into this solution and incubate at 25° C. for 20 min. Glass fiber filters (Whatman GF/B) are placed on the filter machine which is then closed tightly. Just before filtration vacuum is applied, and the filters washed with 0.1% PEI solution from a spray bottle followed by one wash with Tris-buffer.
The binding reaction is stopped by filtration of the assay mixture at reduced pressure (750 mbar) followed by further 3 washes with 5 ml ice-cold Tris-buffer. The filters are then placed in counting vials and 4 ml scintillation solution added. The vials are counted in a Beckmann scintillation counter.
50 mM Tris-buffer pH 7.7: 7.38 g Trizma--7.7 plus distilled H2 O ad 1 liter. 100 ml 10% polyethylenimine (PEI): 100 ml dest. H2 O is added to approx. 20 g 50% PEI which is solubilized by stirring and heating. Diluted (1+99) before use. 6×2 nM ^3 H-DTG: The exact volume depends on the actual concentration of the batch, but is made as close as possible to 12 nM. The containers for the radioactive solution is rinsed in 96% ethanol before use.
^3 H-DTG was obtained from NEN Research Products, Du Pont Denmark. Specific activity 62.3 Ci/mmol.
The known sigma receptor ligands BMY 14802 and rimcazole were included in the test for comparison purposes.
Usually IC50 stands for the concentration that gives 50% inhibition. Turning to `CC(=O)n1cc(CCCCN2CCC3(CC2)OCc2ccccc23)c2ccccc21` [Compound 7, 1'-(4-(1-Acetyl-3-indolyl)-1-butyl)spiro[isobenzofuran-1 (3H),4'-piperidine]], the IC50 is 0.21 nM.

`Fc1ccc(-n2cc(OCCCN3CCC4(CC3)OCc3ccccc34)c3ccccc32)cc1` [Compound 8a, 1'-[3-[1-(4-Fluorophenyl)-3-indolyloxy]-1-propyl]spiro[isobenzofuran-1(3H),4'-piperidine]] had an IC50 of 0.21 nM.

As to `c1ccc(CCCCN2C3CCC2CC2(C3)OCc3ccccc32)cc1` (stereo not shown) [Compound 2t, 8'-(4-Phenyl-1-butyl)spiro[isobenzofuran-1(3H),3'-8-azabicyclo[3,2,1]octane]], the IC50 came to 5.4 nM.

For `Fc1ccc(C2CCN(CCCCc3cn(-c4ccc(F)cc4)c4ccccc34)CC2)cc1` [Compound 9l, 1-(4-Fluorophenyl)-3-[4-(4-(4-fluorophenyl)-1-piperidyl)-1-butyl]indole], the IC50 was 0.14 nM.

`c1ccc(CCCCN2CCC3(CC2)Cc2ccccc2CO3)cc1` [Compound 2g, 1,4-Dihydro-1'-(4-phenyl-1-butyl)spiro[3H-2-benzopyran-3,4'-piperidine]] had an IC50 of 0.36 nM.

`Fc1ccc(-n2cc(OCCN3CCC4(CC3)OCc3ccccc34)c3cc(Cl)ccc32)cc1` [Compound 14a, 1'-[2-[5-Chloro-1-(4-fluorophenyl)-3-indolyloxy]-1-ethyl]spiro[isobenzofuran-1(3H)piperidine]] came in with an IC50 of 24 nM.

Turning to `Fc1ccc(C2CCN(CCCC3COc4ccc(F)cc43)CC2)cc1` (stereo not shown) [Compound 11a, 2,3-Dihydro-5-fluoro-3-[3-(4-(4-fluorophenyl)-1-piperidinyl)-1-propyl]benzofuran], the IC50 turned out to be 0.31 nM.

Consider `CC(C)c1ccc(C2CCN(CCCCc3cn(-c4ccc(F)cc4)c4ccccc34)CC2)cc1` [Compound 9n, 1-(4-Fluorophenyl)-3-[4-(4-(4-isopropylphenyl)-1-piperidyl)-1-butyl]indole], for which the IC50 was determined as 6.3 nM.

In turn, “1'-[3-(2,3-Dihydro-5-fluoro-benzofuran-3-yl)-1-butyl]-spiro[isobenzofuran-1(3H),4'-piperidine] [Compound 11b]” showed an IC50 of 0.63 nM.

`c1ccc(CCCCN2CCC3(CCc4ccccc43)CC2)cc1` [Compound 2c, 2,3-Dihydro-1'-(4-phenyl-1-butyl)spiro[1H-indene-1,4'-piperidine]] came in with an IC50 of 0.51 nM.

Compound `C1=C(CCCCN2CCC3(CC2)OCc2ccccc23)c2ccccc2C1` [Compound 27, 1'-(4-(1H-Inden-3-yl)-1-butyl)-spiro[isobenzofuran-1(3H) ,4'-piperidine]] registered an IC50 of 0.11 nM.

In the case of `Fc1ccc(C2CCN(CCCCCCc3c[nH]c4ccccc34)CC2)cc1` [Compound 2ff, 3-[6-(4-(4-Fluorophenyl)-1-piperidinyl)-1-hexyl]indole], the IC50 worked out at 0.43 nM.

Compound `c1ccc2c(c1)COC21CCN(CCCCc2noc3ccccc23)CC1` [Compound 19a, 1'-(4-(1,2-Benzisoxazol-3-yl)-1-butyl)spiro[isobenzofuran-1(3H) ,4'-piperidine]] gave an IC50 of 0.08 nM.

Compound `O=S1(=O)CC(CCCCN2CCC3(CC2)OCc2ccccc23)c2ccccc21` (stereo not shown) [Compound 33, 1'-[4-(2,3-Dihydro-benzo[b]thiophen-3-yl)-1-butyl]spiro[isobenzofuran-1(3H),4'-piperidine]-S,S-dioxide] yielded an IC50 of 0.95 nM.

The compound `COc1ccccc1C1CCN(CCCCC2CNc3ccccc32)CC1` (stereo not shown) [Compound 13d, 2,3-Dihydro-3-[4-(4-(2-methoxyphenyl)-1-piperidinyl)-1-butyl]indol] showed an IC50 of 2.1 nM.

In turn, `CN(C)CCn1cc(CCCCN2CCC3(CC2)OCc2ccccc23)c2ccccc21` [Compound 36, 1'-[4-(1-(2-Dimethylamino-1-ethyl)-3-indolyl)-1-butyl]spiro[isobenzofuran-1(3H) ,4'-piperidine]] showed an IC50 of 4.5 nM.

These data come from patent US6207677A, “Piperidine derivatives having anxiolytic effect” (H. Lundbeck A/S, priority 1991, dated 2001).
